Experimental data taken from patent US20230257354A1, “NOVEL HETEROCYCLIC COMPOUNDS” (Hoffmann-La Roche Inc., priority 2020, published 2023).

Tested on: Acinetobacter baumannii ATCC17961
Experiment: Antimicrobial susceptibility testing, 90% growth inhibitory concentration (IC90) determination, ATCC17961
Type: cell-based
Conditions: Iso-Sensitest broth, OD 600 nm over 16 h, 35±2° C., read-out: ATCC 17961 IC90
Method: Antimicrobial Susceptibility Testing: 90% Growth Inhibitory Concentration (IC90) Determination The in vitro antimicrobial activity of the compounds was determined according to the following procedure: The assay used a 10-points Iso-Sensitest broth medium to measure quantitatively the in vitro activity of the compounds against Acinetobacter baumannii ATCC17978 or ATCC17961. Stock compounds in DMSO were serially twofold diluted (e.g. range from 50 to 0.097 μM final concentration) in 384 wells microtiter plates and inoculated with 49 μl the bacterial suspension in Iso-Sensitest medium to have a final cell concentration of ˜5×10^(5) CFU/ml in a final volume/well of 50 ul/well. Microtiter plates were incubated at 35±2° C. Bacterial cell growth was determined with the measurement of optical density at X=600 nm each 20 minutes over a time course of 16 h. Growth inhibition was calculated during the logarithmic growth of the bacterial cells with determination of the concentration inhibiting 50% (IC50) and 90% (IC90) of the growth. Table 2 provides the 90% growth inhibitory concentrations (IC90) in micromoles per liter of the compounds of present invention obtained against the strain Acinetobacter baumannii ATCC17961.

Structure (SMILES)	IC90
COc1ccc(-c2cnc(C(=O)Nc3ccc(C(=O)N[C@H]4[C@@H]5CN(C(=O)[C@@H]6C[C@@H](O)CN6)C[C@@H]54)c(Cl)c3)n2C)c(F)c1F [Example B43, N-[3-chloro-4-[[(exo)-3-[(2S,4R)-4-hydroxyprolyl]-3-azabicyclo[3.1.0]hexan-6-yl]carbamoyl]phenyl]-5-(2,3-difluoro-4-methoxy-phenyl)-1-methyl-imidazole-2-carboxamide; 1:1 hydrogen chloride]	139 nM
COc1ccc(-c2cnc(C(=O)Nc3ccc(C(=O)N[C@H]4[C@@H]5CN(C(=O)N[C@@H]6CNC[C@H]6O)C[C@@H]54)c(Cl)c3)n2C)c(F)c1F [Example B44, (exo)-6-[[2-chloro-4-[[5-(2,3-difluoro-4-methoxy-phenyl)-1-methyl-imidazole-2-carbonyl]amino]benzoyl]amino]-N-[(trans)-4-hydroxypyrrolidin-3-yl]-3-azabicyclo[3.1.0]hexane-3-carboxamide; 1:1 hydrogen chloride]	155 nM
